Tests used:
[1] = tested on: Aspergillus nidulans strain YR23.5; assay: Vitamin K growth test on solid media (Petri dishes), vitamin K quantified in lyophilised mycelium; type: cell-based; conditions: in 100 mg DW (dry weight) of lyophilized fungal mycelium; growth tests in Petri dishes, 3 days
Protocol: Solid Media. Minimal media plates including vitamin K (vitamin K1, Fluka, 99%) were prepared. On top of the agar medium, sterile cellophane was placed to inhibit direct contact between the media and fungal cells. Spores of strain YR23.5 were plated in a concentration of ca. 10E+5 per plate. After 3 days of growth, harvesting was done by scraping off the mycelium from cellophane. Then the mycelium was frozen and pulverized in liquid nitrogen. The powder was subsequently lyophilised and sent for vitamin K analysis to LUFA-ITL (Landwirtschaftliche Untersuchungs- und Forschungsanstalt Institut für Tiergesundheit u Lebensmittelqualität GmbH, Kiel, Germany). Liquid media. The strain YR23.5 was pre-cultivated for 48 hours in 2 x 250 ml of liquid minimal media at 37°C, 180 rpm in Erlenmeyer flasks. Mycelium was harvested by filtration, washed and re-suspended in sterile minimal medium and separated into four equal aliquots of roughly 250 mg wet weight (corresponding to roughly 50 mg dry weight). Culture volume was set to 30 ml. […]
The vitamin uptake ability of A.nidulans was studied with growth tests in Petri dishes. In addition, vit.K uptake and unspecific resorption of vit.K to the fungal cell wall was analyzed in liquid cultures. According to growth tests in Petri dishes, 752 µg of vitamin K was quantified in 100 mg DW (dry weight) of lyophilized fungal mycelium. […]

[2] = tested on: Aspergillus nidulans strain YR 23.5; assay: Vitamin K uptake in liquid cultures, viable versus heat-inactivated mycelium; type: cell-based; conditions: for Uptake (vitamin K / DW): active minus inactive
Protocol: Solid Media. Minimal media plates including vitamin K (vitamin K1, Fluka, 99%) were prepared. On top of the agar medium, sterile cellophane was placed to inhibit direct contact between the media and fungal cells. Spores of strain YR23.5 were plated in a concentration of ca. 10E+5 per plate. After 3 days of growth, harvesting was done by scraping off the mycelium from cellophane. Then the mycelium was frozen and pulverized in liquid nitrogen. The powder was subsequently lyophilised and sent for vitamin K analysis to LUFA-ITL (Landwirtschaftliche Untersuchungs- und Forschungsanstalt Institut für Tiergesundheit u Lebensmittelqualität GmbH, Kiel, Germany). Liquid media. The strain YR23.5 was pre-cultivated for 48 hours in 2 x 250 ml of liquid minimal media at 37°C, 180 rpm in Erlenmeyer flasks. Mycelium was harvested by filtration, washed and re-suspended in sterile minimal medium and separated into four equal aliquots of roughly 250 mg wet weight (corresponding to roughly 50 mg dry weight). Culture volume was set to 30 ml. Two of these cultures received different vitamin K amounts, final concentration: 0.5 mg/mL and 0.05 mg/mL vitamin K (Konakion, micelles suspension, Roche, 10 mg/mL) and were grown for further 8 hours. Mock controls were grown in parallel for 8 hours without receiving vitamin K. After the growth phase the fungal cells were inactivated by boiling in the microwave oven (3 x 5 min at max. energy level), and subsequently vitamin K was added to the mock controls (final concentration, 0.5 and 0.05 mg/mL vitamin K). The inactivated cultures were further incubated in the rotary shaker for 30 minutes. All cultures were harvested at the same time point. Harvested biomass was washed, frozen and ground in liquid nitrogen, lyophilised and sent for analysis to LUFA-ITL (Landwirtschaftliche Untersuchungs- und Forschungsanstalt Institut für Tiergesundheit u Lebensmittelqualität GmbH, Kiel, Germany).
The vitamin uptake ability of A.nidulans was studied with growth tests in Petri dishes. In addition, vit.K uptake and unspecific resorption of vit.K to the fungal cell wall was analyzed in liquid cultures. According to growth tests in Petri dishes, 752 µg of vitamin K was quantified in 100 mg DW (dry weight) of lyophilized fungal mycelium. However, due to the set-up of this experiment it remains unclear if the vitamin K is either attached to the cell wall or actively taken up into the fungal cell. To clarify this, a second growth test comparing viable and heat-inactivated mycelium was performed. […] The maximal amount of vit.K unspecifically attached to the cell wall is approximately 20 µg per 100 mg (dry weight) of fungal mycelium. The majority of vitamin K was found in viable cells. The viable mycelium was able to take up approximately 8% of the vitamin K supplied through the culture medium (Hill et al.), more precisely 1,14 mg / 100 mg mycelium from the […] vit.K supplied in total (Table 2). Table 2: Vitamin K1 updake ability of Aspergillus nidulans strain YR 23.5. Vitamin K was added to liquid cultures, the final concentration as indicated. Fungal mycelium was inactivated by boiling in a microwave oven. Values which were obtained with inactivated fungal cell mass indicate the unspecific association of vitamin K to the fungal mycelium.

## CC1=C(C/C=C(\C)CCC[C@H](C)CCC[C@H](C)CCCC(C)C)C(=O)c2ccccc2C1=O [vitamin K, vitamin K1]
[1]
  vitamin K quantified in lyophilized fungal mycelium: 752 µg
[2]; fungal cell mass active, vitamin K added 50 µg/ml
  Uptake (vitamin K / DW): 169,1 µg/100 mg
[2]; fungal cell mass active, vitamin K added 50 µg/ml, liquid culture, 8 hours
  Absolute quantities (vitamin K / DW): 183,0 µg/100 mg
[2]; fungal cell mass active, vitamin K added 500 µg/ml
  Uptake (vitamin K / DW): 1122,1 µg/100 mg
[2]; fungal cell mass active, vitamin K added 500 µg/ml, liquid culture, 8 hours, DW = fungal mycelium (dry weight)
  Absolute quantities (vitamin K / DW): 1140,0 µg/100 mg
[2]; fungal cell mass inactive (boiled in microwave oven), vitamin K added 50 µg/ml, unspecific association with mycelium
  Absolute quantities (vitamin K / DW): 13,9 µg/100 mg
[2]; fungal cell mass inactive (boiled in microwave oven), vitamin K added 500 µg/ml, unspecific association with mycelium
  Absolute quantities (vitamin K / DW): 17,9 µg/100 mg
[2]; per 100 mg (dry weight) of fungal mycelium, inactivated cultures
  maximal amount of vit.K unspecifically attached to the cell wall: approximately 20 µg per 100 mg
[2]; viable mycelium
  vitamin K taken up of the vitamin K supplied through the culture medium: approximately 8%
[2]; viable mycelium, from the 50 mg vit.K supplied in total
  vitamin K taken up by viable mycelium: 1,14 mg / 100 mg mycelium
